Our source for the pest or weed control values is patent publication US8598365B2, “Herbicides” (Syngenta Limited, priority 2007, dated 2013).

Common to all, as to assay type: in vivo
Experiment [1] deals with Alopecurus myosuroides (ALOMY). Nature of the experiment: Example B pre-emergence herbicidal activity. As to conditions: 312 h, rate 250 g/ha, evaluated after 13 days, read-out: Pre-Emergence Activity ALOMY (100=total damage to plant; 0=no damage to plant). The method in brief:
(§1)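 Visual injury score (0 none to 100 total) taken 13 days after spraying. Treatment was applied pre-emergence at day 1 or post-emergence at day 8, using acetone/water 50:50 containing 0.5% Tween 20.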

Experiment [2] has as its system Setaria faberi (SETFA). Kind of experiment: Example B pre-emergence herbicidal activity. As to conditions: 312 h, rate 250 g/ha, evaluated after 13 days, read-out: Pre-Emergence Activity SETFA (100=total damage to plant; 0=no damage to plant). The method in brief: as §1
Experiment [3] deals with Amaranthus retoflexus (AMARE). Kind of experiment: Example B pre-emergence herbicidal activity. The note with it: Amaranthus retroflexus, 312 h, rate 250 g/ha, evaluated after 13 days, read-out: Pre-Emergence Activity AMARE (100=total damage to plant; 0=no damage to plant). The gist of the method:
as §1

For experiment [4], the system named is Avena fatua (AVEFA). Nature of the experiment: Example B pre-emergence herbicidal activity. As to conditions: 312 h, rate 250 g/ha, evaluated after 13 days, read-out: Pre-Emergence Activity AVEFA (100=total damage to plant; 0=no damage to plant). The gist of the method:
as §1

In experiment [5] the test system is Echinochloa crus-galli (ECHCG). Nature of the experiment: Example B pre-emergence herbicidal activity. As to conditions: 312 h, rate 250 g/ha, evaluated after 13 days, read-out: Pre-Emergence Activity ECHCG (100=total damage to plant; 0=no damage to plant). The gist of the method: as §1
For experiment [6], the system named is Alopecurus myosuroides (ALOMY). Kind of experiment: Example B post-emergence herbicidal activity. As to conditions: 312 h, rate 250 g/ha, evaluated after 13 days, read-out: Post-emergence activity ALOMY (100=total damage to plant; 0=no damage to plant). The method in brief: as §1
Experiment [7] concerns Setaria faberi (SETFA). Nature of the experiment: Example B post-emergence herbicidal activity. The note with it: 312 h, rate 250 g/ha, evaluated after 13 days, read-out: Post-emergence activity SETFA (100=total damage to plant; 0=no damage to plant). The gist of the method: as §1
Experiment [8] relates to Amaranthus retoflexus (AMARE). Nature of the experiment: Example B post-emergence herbicidal activity. As to conditions: Amaranthus retroflexus, 312 h, rate 250 g/ha, evaluated after 13 days, read-out: Post-emergence activity AMARE (100=total damage to plant; 0=no damage to plant). The method in brief: as §1
The subject of experiment [9] is Avena fatua (AVEFA). Kind of experiment: Example B post-emergence herbicidal activity. As to conditions: 312 h, rate 250 g/ha, evaluated after 13 days, read-out: Post-emergence activity AVEFA (100=total damage to plant; 0=no damage to plant). The method in brief:
as §1

Experiment [10] deals with Echinochloa crus-galli (ECHCG). Nature of the experiment: Example B post-emergence herbicidal activity. The note with it: 312 h, rate 250 g/ha, evaluated after 13 days, read-out: Post-emergence activity ECHCG (100=total damage to plant; 0=no damage to plant). The gist of the method:
as §1

For `CC(=O)OC1=C(c2nc(-c3ccc(Br)cn3)sc2C)C(=O)[C@H]2CC[C@@H]1C2` [Compound P6], the pest or weed control at 250 g/ha was found to be 20% in [1]; 100% in experiment [2]; 0% in [3]; 0% in [4]; 20% in experiment [5]; 90% in experiment [6]. Moreover, the pest or weed control at 250 g/ha in [7] came out at 100%; in experiment [8] it was 0%; in experiment [9], 80%; in experiment [10], 100%.

On to `CCc1sc(-c2ccc(Cl)c(C)c2)nc1C1C(=O)[C@@H]2CC[C@@H](C2)C1=O` (stereo partly shown) [Compound T20], for which the pest or weed control at 250 g/ha in experiment [1] was 50%; in experiment [2], 40%; in [3], 0%; in [4], 0%; in experiment [5], 70%; in experiment [6], 90%. In addition, the pest or weed control at 250 g/ha in [7] was found to be 90%; in experiment [8], 0%; in [9], 90%; in experiment [10] it was 100%.

On to `CCc1sc(-c2ccc(Cl)cc2Cl)nc1C1C(=O)[C@@H]2CC[C@@H](C2)C1=O` (stereo partly shown) [Compound T46], for which the pest or weed control at 250 g/ha in experiment [1] was determined as 60%; in experiment [2] it was 90%; in [3] it was 0%; in experiment [4], 30%; in experiment [5], 100%; in experiment [6] it was 100%. The pest or weed control at 250 g/ha turned out to be 100% in experiment [7], 0% in [8], 90% in [9] and 100% in experiment [10].

On to `Cc1sc(-c2ccc(Cl)c(C#N)c2)nc1C1C(=O)C2CCC(C2)C1=O` (stereo not shown) [Compound T74], for which the pest or weed control at 250 g/ha in [1] was 30%; in experiment [2] it was 40%; in [3], 100%; in experiment [4] it was 0%; in [5], 20%; in experiment [6] it was 50%. Also, the pest or weed control at 250 g/ha came to 90% in experiment [7], 0% in experiment [8], 0% in experiment [9] and 70% in experiment [10].

In the case of `Cc1sc(-c2ccc3c(c2)OCCO3)nc1C1C(=O)[C@@H]2CC[C@@H](C2)C1=O` (stereo partly shown) [Compound T64], the pest or weed control at 250 g/ha in [1] is 20%; in experiment [2], 0%; in [3] it was 0%; in experiment [4] it was 0%; in [5] it was 0%; in experiment [6] it was 0%. Further, the pest or weed control at 250 g/ha in experiment [7] came to 70%; in [8], 0%; in experiment [9], 0%; in experiment [10], 50%.

Consider `CCc1sc(-c2cc(F)c(OC)cc2F)nc1C1C(=O)[C@@H]2CC[C@@H](C2)C1=O` (stereo partly shown) [Compound T102], for which the pest or weed control at 250 g/ha in [1] is 50%; in experiment [2], 50%; in experiment [3], 0%; in experiment [4], 30%; in [5], 70%; in experiment [6], 100%. Further, the pest or weed control at 250 g/ha is 100% in experiment [7], 0% in experiment [8], 100% in experiment [9] and 100% in experiment [10].

As to `CSc1ccc(-c2nc(C3C(=O)[C@@H]4CC[C@@H](C4)C3=O)c(C)s2)cc1` (stereo partly shown) [Compound T81], the pest or weed control at 250 g/ha in [1] turned out to be 50%; in experiment [2] it was 100%; in [3], 0%; in experiment [4], 40%; in experiment [5] it was 100%; in [6] it was 50%. The pest or weed control at 250 g/ha in [7] turned out to be 100%; in experiment [8], 0%; in experiment [9], 50%; in [10], 100%.

Regarding `O=C1C(c2nc(-c3ccc(Cl)cc3)sc2Br)C(=O)[C@H]2CC[C@@H]1C2` (stereo partly shown) [Compound T49], the pest or weed control at 250 g/ha in experiment [1] was found to be 100%; in experiment [2] it was 100%; in [3] it was 0%; in experiment [4], 100%; in [5] it was 100%; in experiment [6] it was 90%. Besides, the pest or weed control at 250 g/ha came to 100% in [7], 0% in experiment [8], 90% in experiment [9] and 100% in experiment [10].

As to `Cc1sc(-c2cc(Cl)ccc2Cl)nc1C1C(=O)[C@@H]2CC[C@@H](C2)C1=O` (stereo partly shown) [Compound T73], the pest or weed control at 250 g/ha was determined as 0% in [1]; 0% in [2]; 0% in experiment [3]; 50% in [4]; 0% in [5]; 0% in experiment [6]. Moreover, the pest or weed control at 250 g/ha in experiment [7] was found to be 30%; in experiment [8], 0%; in experiment [9] it was 0%; in experiment [10], 20%.

Regarding `Cc1sc(-c2ccc3ccccc3c2)nc1C1C(=O)[C@@H]2CC[C@@H](C2)C1=O` (stereo partly shown) [Compound T63], the pest or weed control at 250 g/ha in [1] stood at 90%; in experiment [2], 90%; in [3], 0%; in experiment [4] it was 90%; in [5], 100%; in experiment [6], 60%. The pest or weed control at 250 g/ha in experiment [7] was 100%; in [8], 0%; in [9] it was 70%; in experiment [10], 100%.

Take `CCc1sc(-c2ccccc2)nc1C1C(=O)[C@@H]2CC[C@@H](C2)C1=O` (stereo partly shown) [Compound T93]: the pest or weed control at 250 g/ha turned out to be 20% in experiment [1]; 20% in experiment [2]; 0% in experiment [3]; 0% in [4]; 40% in experiment [5]; 30% in [6]. In addition, the pest or weed control at 250 g/ha in [7] came to 70%; in [8] it was 0%; in experiment [9], 0%; in experiment [10], 70%.

On to `CC(=O)OC1=C(c2nc(-c3ccc(Cl)cc3)ncc2C)C(=O)[C@@H]2C[C@H]1C2(C)C` [Compound P19], for which the pest or weed control at 250 g/ha is 10% in experiment [1]; 90% in experiment [2]; 0% in experiment [3]; 0% in experiment [4]; 20% in experiment [5]; 20% in [6]. Moreover, the pest or weed control at 250 g/ha in experiment [7] is 90%; in experiment [8], 0%; in [9] it was 0%; in experiment [10] it was 90%.

For the molecule `Cc1sc(-c2ccc(Br)cc2F)nc1C1C(=O)[C@@H]2CC[C@@H](C2)C1=O` (stereo partly shown) [Compound T32], the pest or weed control at 250 g/ha in [1] came out at 90%; in experiment [2] it was 100%; in experiment [3] it was 0%; in experiment [4] it was 80%; in experiment [5], 100%; in [6] it was 100%. Moreover, the pest or weed control at 250 g/ha in experiment [7] turned out to be 100%; in experiment [8], 0%; in experiment [9] it was 90%; in experiment [10] it was 100%.
